Article PMC6158189, “A pharmacological probe identifies cystathionine β-synthase as a new negative regulator for ferroptosis” (Cell Death & Disease, 2018)

Legend:
hCBS Q222A = biological target: T1, hCBS Q222A (Homo sapiens, UniProt P35520, Q222A); assay: purified hCBS mutant enzyme assay; assay type: biochemical; conditions: 1 mM HA, 60 mM Cys, 1.2 μM CBS-413 Q222A
T1 construct: hCBS-413 (a C-terminal truncated hCBS 1–413); GST (N); made in house; host or cells: E. coli BL21
T1 sequence (P35520 1-413 Q222A): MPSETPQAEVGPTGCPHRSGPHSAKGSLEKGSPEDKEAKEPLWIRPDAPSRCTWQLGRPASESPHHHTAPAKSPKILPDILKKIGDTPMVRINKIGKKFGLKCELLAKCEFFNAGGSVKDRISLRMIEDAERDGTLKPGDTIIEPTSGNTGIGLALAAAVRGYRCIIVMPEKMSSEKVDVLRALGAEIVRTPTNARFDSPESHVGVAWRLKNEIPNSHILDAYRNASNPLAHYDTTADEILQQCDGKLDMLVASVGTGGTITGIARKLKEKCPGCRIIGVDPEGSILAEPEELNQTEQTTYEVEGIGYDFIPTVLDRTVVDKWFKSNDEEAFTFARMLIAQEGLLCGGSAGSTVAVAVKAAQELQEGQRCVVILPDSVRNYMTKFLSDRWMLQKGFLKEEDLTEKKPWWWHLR
Description: The IC50 values of CH004 for hCBS-413, hCBS-413 mutants, hCBS-FL, hCSE or hDDC were determined according to the standard assay conditions otherwise indicated.
Figure S6. […] HEK293T cells stably expressing CBS Q222A mutant (293T-CBS Q222A) were treated with 0 (DMSO control), 5 or 10 μM CH004 for 8 h before staining with the AzMC to detect H2S. The overlaid images of fluorescent and bright-field images are shown in the left panel, and the corresponding fluorescent (blue, H2S) and bright-field images are shown in the middle and right panels, respectively. Bars: 50 μm. [picture] Figure S7. The CH004-insensitive CBS Q222A mutant can be inhibited by HA. (A) HEK293T cells stably expressing CBS Q222A mutant (293T-CBS Q222A) were treated with 0 (DMSO, control), 5 or 10 μM of CH004, 1 mM or 2 mM of HA for 8 h before staining with the AzMC to detect H2S. The overlaid images of fluorescent and bright-field images are shown in the upper panel, and the corresponding fluorescent (blue, H2S) and bright-field images are shown in the middle and lower panels, respectively. Bars: 50 μm. (B) Quantification of the mean fluorescent density of H2S (blue). The intensity of blue light of the fluorescent images was quantified by ImageJ software, quantified and deduced the background signal in HEK293T-EV cells (Supplementary Figure S3B), normalized by the corresponding cell area and expressed as percentages of control (DMSO group, 100%). Means ± SDs (n=3). One-way ANOVA with Bonferroni post-tests was used for the analysis. *, p< 0.05; **, p< 0.01; n.s. no significance. The images are one representative from three independent experiments. (C) The inhibitory effect of 1 mM HA on purified CBS Q222A mutant. The assay was performed using 60 mM Cys and 1.2 μM CBS-413 Q222A mutant. The data were expressed as percentages of control (DMSO, 100%). Means ± SDs (n=4). [picture]
Table S2. Inhibitory effects of CH004 on hCBS WT and mutants.

[1] = biological target: T2, CBS-FL mutant (293T-CBS Q222A) (Homo sapiens, UniProt P35520, Q222A); assay: H2S in HEK293T cells stably expressing CBS Q222A (AzMC probe); assay type: cell-based; conditions: 1 mM or 2 mM HA, 8 h
T2 construct: human CBS or hCSE full-length (CBS-FL or CSE) was subcloned into pGEX-KG, pcDNA3 or pCDH vector; expressed in transfected cells
Description: HEK293T cells were transiently transfected with empty vector (EV, i and ii), hCBS-FL (iii and iv) or hCSE (v and vi) plasmids, followed by incubation with DMSO (i–iii and v) or 10 μM CH004 (iv and vi) for 8 h before staining with 50 μM AzMC, a H2S-specific probe (“Materials and Methods” section). For larger fluorescent and bright-field images, please see Supplementary Figure 4. The expression levels of hCBS or hCSE in HEK293T cells after transient transfections were determined by western blotting using an anti-CBS antibody (3E1, 1:2000; Abnova) or anti-CSE antibody (1:500, GeneTex). The densities of protein bands for hCBS or hCSE in the blots were quantified with the ImageJ software (National Institutes of Health, Bethesda, MD, USA) and expressed as ratios of respective control (EV group). […] The fluorescent images of the H2S (blue) were accordingly quantified (“Materials and Methods” section) with ImageJ. […] A representative fluorescence image from three independent experiments is shown. […]
H2S levels in living cells were detected using a H2S-specific fluorescent probe according to a protocol described previously[31],[55]. […] After incubation with 50 μM AzMC at 37 °C for 30 min, the cells were washed 4 times with PBS, and the fluorescent images were recorded with excitation by 405 nm laser by using a A1Si (Nikon) confocal microscope. […]

- inhibitory effect on activity of purified CBS Q222A mutant (hCBS Q222A): could be suppressed
- effect on H2S [1]: substantially decreased
Structure (SMILES): NO [HA, hydroxylamine, reference compound]
